{"source": "patent US20160166676A1", "about": "(priority 2013, published 2016)", "key": {"[1]": {"system": "CTLL-2 cells", "format": "cell-based"}, "[2]": {"target": "STING deletion mutant DN5 (162-N) (Homo sapiens, UniProt Q86WV6)", "sequence (Q86WV6 162-379, stated change not applied)": "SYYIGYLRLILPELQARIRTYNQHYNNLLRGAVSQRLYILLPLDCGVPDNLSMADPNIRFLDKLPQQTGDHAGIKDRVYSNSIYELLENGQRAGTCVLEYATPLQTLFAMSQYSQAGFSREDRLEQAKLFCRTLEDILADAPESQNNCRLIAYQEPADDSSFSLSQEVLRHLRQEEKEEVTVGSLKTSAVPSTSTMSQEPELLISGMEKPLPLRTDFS", "format": "binding"}}, "data": [{"sequence": "GLFGAIAGFIENGWEGCGGEKEKEK [IN F#2 dimer]", "values": [{"measurement": "proliferation of CTLL-2 cells", "setting": "[1]", "value": "inhibits the proliferation of CTLL-2 cells"}, {"measurement": "pulldown of STING deletion mutant DN5 (162-N) by biotinylated peptide", "setting": "[2]", "value": "readily pulled down"}]}]}
